Results taken from patent US7964738B2, “Pharmaceutical compositions and methods of use of lipophilic, silicon-substituted, cyclooxygenase-2 selective non-steroidal anti-inflammatory drugs and derivatives” (Silamed, Inc., priority 2004, dated 2011).

Tests used:
[1] = tested on: human MiaPaCa-2 pancreatic cancer cells; assay: In vitro cellular proliferation assay (SRB); assay type: cell-based; conditions: MIA PaCa-2, 72 h, 3 days incubation, starting concentration 100 μM, read-out: IC50 (growth inhibition, MiaPaCa-2)
Description: In vitro cell proliferation assays were performed using a 96-well plate based SRB (Sulforhodamine-B) assay. Briefly, human MiaPaCa-2 pancreatic cancer cells were plated in 100 μl medium on day 0 in 96-well microtiter plates (Falcon #3072). On day 1, 10 μl of serial dilutions of each compound (Nine 1:2 dilutions with a starting concentration of 100 μM) were added in triplicates to the plates. As a vehicle control, serial dilutions of DMSO with a starting concentration of 0.5% were also included. After incubation for 3 days at 37° C. in a humidified incubator, cells were fixed in situ with 50 μL of cold trichloroacetic acid (TCA, final concentration at 10% w/v) for 60 minutes. Cells were then washed 5 times with H2O and air-dried. Next, cells were stained with 20 μL of 0.2% SRB in 1% acetic acid and incubated at room temperature for 30 minutes and unbound SRB was removed by washing 5 times with 1% acetic acid and air-dried. Finally, bound SRB stain was solubilized in 50 μL of 50 μM Tris buffer before taking an optical density measurement at 570 nm using a BioTek Synergy™ HT Multiple Detection microplate reader. The growth inhibition data were expressed as the percentage of cell survival calculated from the background corrected absorbance. The surviving fraction of cells was determined by dividing the mean absorbance values of the test agent-treated samples by the mean absorbance values of untreated control.

[2] = molecular target: T1, Recombinant human COX-2 (Homo sapiens, UniProt P35354); assay: Recombinant human COX-2 enzyme assay (PGE2 by EIA); assay type: biochemical; conditions: preincubation 5 min at 22° C., 2 μM arachidonic acid
T1 sequence (P35354 18-604): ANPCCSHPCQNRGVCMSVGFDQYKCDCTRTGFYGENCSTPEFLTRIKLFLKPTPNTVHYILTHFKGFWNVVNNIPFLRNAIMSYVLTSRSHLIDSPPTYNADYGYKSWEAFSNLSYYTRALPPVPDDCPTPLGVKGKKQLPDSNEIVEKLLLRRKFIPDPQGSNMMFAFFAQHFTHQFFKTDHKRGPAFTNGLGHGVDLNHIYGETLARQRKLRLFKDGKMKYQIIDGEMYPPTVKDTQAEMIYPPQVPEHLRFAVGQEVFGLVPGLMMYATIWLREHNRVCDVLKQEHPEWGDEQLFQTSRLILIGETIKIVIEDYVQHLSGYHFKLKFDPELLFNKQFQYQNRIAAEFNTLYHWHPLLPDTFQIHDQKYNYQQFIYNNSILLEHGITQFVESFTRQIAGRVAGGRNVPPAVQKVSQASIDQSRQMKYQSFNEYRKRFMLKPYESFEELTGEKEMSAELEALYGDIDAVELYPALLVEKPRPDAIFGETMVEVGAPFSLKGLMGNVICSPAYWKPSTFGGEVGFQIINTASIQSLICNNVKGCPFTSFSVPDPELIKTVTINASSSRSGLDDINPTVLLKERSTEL
Description: (§1) Recombinant human enzymes were reconstituted in buffer (100 mM Tris, pH 7.8 at 37° C.) containing 0.5 mM phenol (964 μl total volume). The enzyme preparations were preincubated with vehicle (DMSO) or compounds of the invention in DMSO (1% DMSO in final assay) for 10 min at 25° C. for COX-1 and 5 min at 22° C. for COX-2. Excess hematin was added 1 min prior to initiation of reaction (1.25 μM final hematin) with 4 μM (COX-1) and 2 μM (COX-2) arachidonic acid (sodium salt). The final assay volume was 1.0 ml (100 mM Tris (pH 7.8), 0.5 mM phenol, 1.25 μM hematin and arachidonic acid at 37° C.). The reaction was incubated for 35 s (maximum level of COX-2 accumulation as determined from time course studies), and terminated by addition of 50-60 μl of SnCl2 (1 mg/ml) in 0.1 N HCl. PGE2 production in the presence or absence of the drug was determined by Enzyme Immunoassay (EIA) analysis as described.
(§2) EIA Determination of Prostaglandins
(§3) EIA reagents for prostaglandin determination were purchased from commercial sources. PGE2 levels in enzyme assays were measured against standards prepared in the same milieu using standard methods. The EIA was conducted in 96-well micotiter plates and optical density measured using a microplate reader by standard methods.

[3] = molecular target: Recombinant human COX-1 (Homo sapiens, UniProt P23219); assay: Recombinant human COX-1 enzyme assay (PGE2 by EIA); assay type: biochemical
Description: as §1, with “Excess hematin was added 1 min prior to initiation of reaction (1.25 μM final hematin) with 4 μM (COX-1) and 2 μM (COX-2) arachidonic acid (sodium salt). The final assay volume was 1.0 ml (100 mM Tris (pH 7.8), 0.5 mM phenol, 1.25 μM hematin and arachidonic acid at 37° C.).” left out
as §2, §3

Recombinant human COX-1, sequence (P23219 24-599): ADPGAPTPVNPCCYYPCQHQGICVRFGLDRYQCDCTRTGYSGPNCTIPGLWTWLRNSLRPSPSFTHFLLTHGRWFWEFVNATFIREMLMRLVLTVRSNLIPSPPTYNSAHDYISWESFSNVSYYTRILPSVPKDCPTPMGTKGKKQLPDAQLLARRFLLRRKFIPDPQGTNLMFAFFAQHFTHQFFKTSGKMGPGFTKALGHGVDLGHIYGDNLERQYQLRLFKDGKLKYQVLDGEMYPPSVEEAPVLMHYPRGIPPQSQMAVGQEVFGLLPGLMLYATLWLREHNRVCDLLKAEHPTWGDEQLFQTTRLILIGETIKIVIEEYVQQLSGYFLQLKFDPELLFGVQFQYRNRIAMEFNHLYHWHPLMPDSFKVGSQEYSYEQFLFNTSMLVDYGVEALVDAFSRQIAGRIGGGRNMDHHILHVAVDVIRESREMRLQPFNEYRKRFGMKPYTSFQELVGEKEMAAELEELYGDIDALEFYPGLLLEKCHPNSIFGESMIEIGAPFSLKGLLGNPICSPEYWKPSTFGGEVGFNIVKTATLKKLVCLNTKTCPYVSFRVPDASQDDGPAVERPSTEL

Work on `COc1ccc2c(c1)c(CC(=O)NC[Si](C)(C)c1ccccc1)c(C)n2C(=O)c1ccc(Cl)cc1` [Example 3, 2-(1-(4-chlorobenzoyl)-5-methoxy-2-methyl-1H-indol-3-yl)-N-((dimethyl(phenyl)silyl)methyl)acetamide] yielded an IC50 [1] of 4.8 µM, a melting point of 121 to 124 °C and an IC50 [2] of 310 nM. For the same compound, the IC50 [3] was greater than 10 µM.
Compound `COc1ccc2c(c1)c(CC(=O)NCCC[Si](C)(C)C)c(C)n2C(=O)c1ccc(Cl)cc1` [Example 1, 2-(1-(4-chlorobenzoyl)-5-methoxy-2-methyl-1H-indol-3-yl)-N-(3-(trimethylsilyl)propyl)acetamide] has an IC50 [1] of 6.6 µM, a melting point of 97 to 101 °C and an IC50 [2] of 210 nM. For the same compound, the IC50 [3] was greater than 10 µM.
For `COc1ccc2c(c1)c(CC(=O)O)c(C)n2C(=O)c1ccc(Cl)cc1` [Indomethacin, reference compound], the IC50 [1] was greater than 100 µM.
For `CCO[Si](CCCNC(=O)Cc1c(C)n(C(=O)c2ccc(Cl)cc2)c2ccc(OC)cc12)(OCC)OCC` [Example 4, 2-(1-(4-chlorobenzoyl)-5-methoxy-2-methyl-1H-indol-3-yl)-N-(3-(triethoxysilyl)propyl)acetamide], the IC50 [1] was 20 µM, the melting point was 71 to 73 °C (dec.) and the IC50 [2] was 570 nM. It also gave an IC50 [3] of 5 µM.
In the case of `COc1ccc2c(c1)c(CC(=O)NC[Si](C)(C)C)c(C)n2C(=O)c1ccc(Cl)cc1` [Example 2, 2-(1-(4-chlorobenzoyl)-5-methoxy-2-methyl-1H-indol-3-yl)-N-((trimethylsilyl)methyl)acetamide], the IC50 [1] is reported as 14.3 µM, the melting point is reported as 163 to 165 °C and the IC50 [2] is reported as 390 nM. For the same compound, the IC50 [3] was 2.7 µM.
